Results as given in patent US20100098633A1, “SELECTIVE SEPRASE INHIBITORS” (Molecular Insight Pharmaceuticals, Inc., priority 2008, published 2010).

Target: T1, recombinant human seprase (rhFAP) (Homo sapiens, UniProt Q12884)
T1 sequence (Q12884 26-760 limits assumed): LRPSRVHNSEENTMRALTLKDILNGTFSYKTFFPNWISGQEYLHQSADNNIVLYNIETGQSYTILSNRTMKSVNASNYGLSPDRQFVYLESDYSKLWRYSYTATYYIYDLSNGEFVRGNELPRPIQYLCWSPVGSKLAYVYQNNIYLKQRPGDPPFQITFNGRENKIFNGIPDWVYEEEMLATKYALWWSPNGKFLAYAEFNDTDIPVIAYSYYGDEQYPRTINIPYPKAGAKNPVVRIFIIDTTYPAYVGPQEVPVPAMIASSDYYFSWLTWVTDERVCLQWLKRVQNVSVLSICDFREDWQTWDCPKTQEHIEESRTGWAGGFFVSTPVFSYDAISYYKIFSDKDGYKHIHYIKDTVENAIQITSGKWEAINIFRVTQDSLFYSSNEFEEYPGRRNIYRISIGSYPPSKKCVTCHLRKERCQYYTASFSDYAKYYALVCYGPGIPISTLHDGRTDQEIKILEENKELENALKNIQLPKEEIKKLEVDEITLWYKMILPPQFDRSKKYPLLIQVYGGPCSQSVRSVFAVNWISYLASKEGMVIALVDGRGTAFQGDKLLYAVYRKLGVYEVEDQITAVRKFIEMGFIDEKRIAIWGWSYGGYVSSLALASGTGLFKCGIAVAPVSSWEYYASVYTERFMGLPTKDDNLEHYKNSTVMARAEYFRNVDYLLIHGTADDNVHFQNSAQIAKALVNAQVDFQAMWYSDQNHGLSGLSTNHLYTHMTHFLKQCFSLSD
Assay: Inhibition of enzymatic activity of recombinant human seprase on Z-Gly-Pro-AMC (fluorescence)
Type: biochemical
Conditions: for IC50: in vitro data against seprase, read-out: FAP (IC50 nM); for remaining activity at 0.005 µM: inhibitor 0.005 μM; for remaining activity at 0.005 µM / remaining activity at 0.05 µM / remaining activity at 0.5 µM / remaining activity at 5 µM / remaining activity at 500 µM: initial velocity normalized to control without test compound, 50 μM Z-Gly-Pro-AMC, read-out: Percent of Control; for remaining activity at 0.05 µM: inhibitor 0.05 μM; for remaining activity at 0.5 µM: inhibitor 0.5 μM; for remaining activity at 5 µM: inhibitor 5 μM; for remaining activity at 500 µM: inhibitor 500 μM
Procedure: In vitro assaying of compounds for inhibition of dipeptidyl peptidase activity of seprase and DPP-IV can be achieved following the described in Edosada C. Y. et al. J. Biolog. Chem. 2006, 281, 7437-7444.
Selected test compounds were examined for their ability to inhibit the enzymatic activity of recombinant human seprase (rhFAP) on the substrate, benzyloxycarbonyl-Gly-Pro-7-amido-4-methylcoumarin (Z-Gly-Pro-AMC). In brief, 10 μg rhFAP was added to 50 μM Z-Gly-Pro-AMC in the presence of increasing concentrations of test compound, and enzymatic activity was determined by monitoring fluorescence (Ex. 355 nm/Em. 460 nm). Compound 1051 is the known inhibitor, Cbz-Gly-boroproline. Initial velocity of the reaction was calculated and normalized to control reactions conducted in the absence of test compound.
The inhibition was measured by the half maximal inhibitory concentration (IC50) of a compound of interest. The IC50 indicates how much of a particular compound is needed to inhibit seprase by half.

Row | IC50 [nM] | Molecule | also measured
1 | 7410 | N#C[C@@H]1CCCN1C(=O)CNC(=O)[C@@H](CC(=O)O)NC(=O)c1cccc(I)c1 [Compound 1048, (R)-4-(2-((S)-2-cyanopyrrolidin-1-yl)-2-oxoethylamino)-3-(3-iodobenzamido)-4-oxobutanoic acid] | –
2 | 24500 | NC(Cc1ccc(I)cc1)C(=O)NCC(=O)N1CCCC1N (centres unmarked) [Compound 1061] | –
3 | 3530 | Re(CO)3[2-((6-(2-(2-boronopyrrolidin-1-yl)-2-oxoethylamino)-6-oxohexyl)(pyridin-2-ylmethyl)amino)acetic acid] [Compound 1016] | –
4 | 5 | O=C(NCC(=O)N1CCCC1B(O)O)c1cc(I)ccc1Cl (centres unmarked) [Compound 1027, 1-(2-(2-chloro-5-iodobenzamido)acetyl)pyrrolidin-2-ylboronic acid] | –
5 | 500 | O=C(NCC(=O)N1CCCC1B(O)O)c1cc(I)ccn1 (centres unmarked) [Compound 1033, 1-(2-(4-iodopicolinamido)acetyl)pyrrolidin-2-ylboronic acid] | –
6 | 20 | Re(CO)3[1-(2-(6-(bis((1-methyl-1H-imidazol-2-yl)methyl)amino) hexanamido)acetyl)pyrrolidin-2-ylboronic acid] [Compound 1018] | –
7 | 511 | N#C[C@@H]1CCCN1C(=O)CNC(=O)c1ccc(I)cc1 [Compound 1039, (S)-N-(2-(2-cyanopyrrolidin-1-yl)-2-oxoethyl)-4-iodobenzamide] | –
8 | 262 | N#Cc1ccc(I)cc1C(=O)NCC(=O)N1CCCC1B(O)O (centres unmarked) [Compound 1031, 1-(2-(2-cyano-5-iodobenzamido)acetyl)pyrrolidin-2-ylboronic acid] | –
9 | 340 | NC(Cc1ccc(I)cc1)C(=O)NCC(=O)N1CCCC1B(O)O (centres unmarked) [Compound 1035, 1-(2-(2-amino-3-(4-iodophenyl)propanamido)acetyl)pyrrolidin-2-ylboronic acid] | –
10 | 1440 | N#C[C@@H]1CCCN1C(=O)CNC(=O)c1cc(I)cc(C(=O)O)c1 [Compound 1045, (S)-3-(2-(2-cyanopyrrolidin-1-yl)-2-oxoethylcarbamoyl)-5-iodobenzoic acid] | –
11 | 35 | N#C[C@@H]1CCCN1C(=O)CNC(=O)c1cccc(I)c1 [Compound 1040, (S)-N-(2-(2-cyanopyrrolidin-1-yl)-2-oxoethyl)-3-iodobenzamide] | IC50 values against seprase (in words): low nanomolar range
12 | 3 | O=C(NCC(=O)N1CCCC1B(O)O)c1ccc(I)cc1 (centres unmarked) [Compound 1024, 1-(2-(4-iodobenzamido)acetyl)pyrrolidin-2-ylboronic acid] | IC50 values against seprase (in words): low nanomolar range; remaining activity at 0.005 µM: 22%; remaining activity at 0.05 µM: 0%; remaining activity at 0.5 µM: 0%; remaining activity at 5 µM: 0%; remaining activity at 500 µM: 0%
13 | 953 | N#C[C@@H]1CCCN1C(=O)CNCc1cccc(I)c1 [Compound 1049, (S)-1-(2-(3-iodobenzylamino)acetyl)pyrrolidine-2-carbonitrile] | –
14 | 37 | O=C(CN1CCN(Cc2cccc(I)c2)CC1)N1CCCC1B(O)O (centres unmarked) [Compound 1036, 1-(2-(4-(3-iodobenzyl)piperazin-1-yl)acetyl)pyrrolidin-2-ylboronic acid] | –
15 | 1150 | N#C[C@@H]1CCCN1C(=O)CN1CCN(Cc2cccc(I)c2)CC1 [Compound 1050, (S)-1-(2-(4-(3-iodobenzyl)piperazin-1-yl)acetyl)pyrrolidine-2-carbonitrile] | –
16 | 67 | O=C(NCC(=O)N1CCCC1B(O)O)OCc1ccccc1 (stereo not drawn) [Compound 1051, Cbz-Gly-boroproline, reference compound] | remaining activity at 0.005 µM: 81%; remaining activity at 0.05 µM: 46%; remaining activity at 0.5 µM: 1%; remaining activity at 5 µM: 0%; remaining activity at 500 µM: 0%

Row | Molecule | IC50 [nM] | also measured
17 | Re(CO)3-2,2′-(2,2′-(6-(2-(2-boronopyrrolidin-1-yl)-2-oxoethylamino)-6-oxohexyl azanediyl)bis(methylene)bis(1H-imidazole-2,1-diyl))diacetic acid [Compound 1020] | 4 | –
